Source: patent US12187709B2 (Genentech, Inc., priority 2021, dated 2025)

How the values were obtained:
[1] = target: Human Cbl-b (residues 40-426) (Homo sapiens (Human), UniProt Q13191); test: Cbl-b SPR assay; format: binding; settings: for Fold of selectivity: C-cbl SPR Kd vs Cbl-b SPR Kd; for Kd: SPR, 20° C.
Outline: (§1)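 Binding is measured by surface plasmon resonance against both isoforms, with double referencing and 1:1 kinetic fitting. Dissociation time is tuned to 4-5 half-lives.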

[2] = target: Cbl-b (Homo sapiens (Human), UniProt Q13191); test: Cbl-b LCK Ub TR-FRET assay (Cbl-b Lck HTRF); format: biochemical; settings: for IC50: Cbl-b LCK Ub TR-FRET; for fold-selectivity (Cbl-b over C-cbl) / (fold-selectivity) Cbl-b and C-Cbl Selectivity: ratio C-cbl Lck HTRF IC50 / Cbl-b Lck HTRF IC50
Chain of Cbl-b (Q13191 40-426): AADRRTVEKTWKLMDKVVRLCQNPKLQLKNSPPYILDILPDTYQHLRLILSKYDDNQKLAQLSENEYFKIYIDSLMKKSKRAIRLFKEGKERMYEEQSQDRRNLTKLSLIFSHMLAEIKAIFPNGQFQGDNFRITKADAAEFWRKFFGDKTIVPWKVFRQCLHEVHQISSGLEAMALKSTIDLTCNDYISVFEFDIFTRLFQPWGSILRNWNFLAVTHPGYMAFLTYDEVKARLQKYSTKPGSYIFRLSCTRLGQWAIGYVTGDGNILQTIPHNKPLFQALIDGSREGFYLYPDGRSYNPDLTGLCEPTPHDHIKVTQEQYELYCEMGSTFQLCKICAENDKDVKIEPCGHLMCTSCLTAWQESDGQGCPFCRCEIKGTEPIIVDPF
Outline: (§2)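 After the ubiquitination reaction, detection mixture was added and plates incubated 20 min at room temperature before reading. IC50 values were calculated with wells lacking LCK as the low control and DMSO as the high control.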

[3] = target: c-Cbl (residues 47-435) (Homo sapiens (Human), UniProt P22681); test: c-Cbl SPR assay; format: binding; settings: 20° C.
Chain of c-Cbl (residues 47-435) (P22681 47-435): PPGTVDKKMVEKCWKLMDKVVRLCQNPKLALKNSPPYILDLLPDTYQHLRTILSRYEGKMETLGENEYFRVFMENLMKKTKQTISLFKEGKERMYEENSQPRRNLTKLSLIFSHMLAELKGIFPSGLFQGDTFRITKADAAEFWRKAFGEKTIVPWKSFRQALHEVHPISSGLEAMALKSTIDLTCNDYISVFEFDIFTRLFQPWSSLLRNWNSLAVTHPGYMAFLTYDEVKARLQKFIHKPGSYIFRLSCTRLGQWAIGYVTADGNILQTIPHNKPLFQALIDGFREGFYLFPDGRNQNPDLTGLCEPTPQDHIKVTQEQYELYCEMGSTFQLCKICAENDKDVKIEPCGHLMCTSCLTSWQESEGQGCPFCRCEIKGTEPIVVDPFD
Outline: as §1

[4] = target: c-Cbl (Homo sapiens (Human), UniProt P22681); test: C-Cbl LCK Ub TR-FRET assay (C-cbl Lck HTRF); format: biochemical
Chain of c-Cbl (P22681 47-435): as above
Outline: as §2

Chain of Human Cbl-b (residues 40-426) (Q13191 40-426): as the sequence (Q13191 40-426) above

Row | Structure (SMILES) | Fold of selectivity [1] [×] | Kd [1] [nM] | IC50 [2] [nM] | fold-selectivity (Cbl-b over C-cbl) [2] | Kd [3] [nM] | IC50 [4] [nM] | IC50 ([2]; Example 121) [nM] | (fold-selectivity) Cbl-b and C-Cbl Selectivity [2] [x]
1 | Cn1cnnc1[C@@](O)(c1cccc(N2Cc3c(cc(CNC4(C)CCC4)cc3C(F)(F)F)C2=O)c1)C1CCC1 (single isomer, unassigned) [Compound 2] | 13 | 2.3 | 16 | (1.5x) | 29 | 24 | – | –
2 | Cn1cnnc1[C@]1(c2cccc(N3Cc4c(cc(CNC5(C)CCC5)cc4C(F)(F)F)C3=O)c2)C[C@@](O)(C(F)(F)F)C1 [Compound 120, 2-(3-((1s,3s)-3-hydroxy-1-(4-methyl-4H-1,2,4-triazol-3-yl)-3-(trifluoromethyl)cyclobutyl)phenyl)-6-(((1-methylcyclobutyl)amino)methyl)-4-(trifluoromethyl)isoindolin-1-one] | 6.8 | 180 | 360 | 4.8 x | 1400 | 1800 | – | –
3 | CO[C@H]1C[C@](c2cccc(N3Cc4c(cc(CN[C@H]5[C@@H]6COC[C@@H]65)cc4C(F)(F)F)C3=O)c2)(c2nncn2C)C1 [Compound 492, 6-(((1R,5S,6r)-3-oxabicyclo[3.1.0]hexan-6-ylamino)methyl)-2-(3-((1r,3R)-3-methoxy-1-(4-methyl-4H-1,2,4-triazol-3-yl)cyclobutyl)phenyl)-4-(trifluoromethyl)isoindolin-1-one] | 15 | 12 | – | – | 180 | 87 | 14 | 6.2
4 | Cn1cnnc1[C@]1(c2cc(OC3CCCC3)cc(N3Cc4c(cc(CNC5(C)CCC5)cc4C(F)(F)F)C3=O)c2)C[C@@H](C)C1 [Compound 195, 2-(3-(cyclopentyloxy)-5-((1r,3r)-3-methyl-1-(4-methyl-4H-1,2,4-triazol-3-yl)cyclobutyl)phenyl)-6-(((1-methylcyclobutyl)amino)methyl)-4-(trifluoromethyl)isoindolin-1-one] | 7.6 | 15 | 36 | 2.4x | 110 | 84 | – | –
5 | C[C@@H](NC1(C)CCC1)c1cc2c(c(C(F)(F)F)c1)CN(c1cccc([C@H](c3nncn3C)C3COC3)c1)C2=O [Compound 444, 2-(3-((R)-(4-methyl-4H-1,2,4-triazol-3-yl)(oxetan-3-yl)methyl)phenyl)-6-((R)-1-((1-methylcyclobutyl)amino)ethyl)-4-(trifluoromethyl)isoindolin-1-one] | 1.8 | 0.4 | – | – | 0.7 | 4.5 | 4.1 | 1.1
6 | C=CCNc1cc(N2Cc3c(cc(CNC4(C)CCC4)cc3C(F)(F)F)C2=O)cc([C@]2(c3nncn3C)C[C@H](OC)C2)c1 [Compound 232, 2-(3-(allylamino)-5-((1r,3r)-3-methoxy-1-(4-methyl-4H-1,2,4-triazol-3-yl)cyclobutyl)phenyl)-6-(((1-methylcyclobutyl)amino)methyl)-4-(trifluoromethyl)isoindolin-1-one] | 9.2 | 1.4 | 13 | 2.6x | 13 | 35 | – | –
7 | CO[C@H]1C[C@](c2cccc(N3Cc4c(cc(CNCC5(O)CC5)cc4C(F)(F)F)C3=O)c2)(c2nncn2C)C1 [Compound 473, 6-((((1-hydroxycyclopropyl)methyl)amino)methyl)-2-(3-((1r,3r)-3-methoxy-1-(4-methyl-4H-1,2,4-triazol-3-yl)cyclobutyl)phenyl)-4-(trifluoromethyl)isoindolin-1-one] | 11 | 7.6 | – | – | 85 | 50 | 14 | 3.6
8 | Cn1cnnc1[C@@H](c1cccc(N2Cc3c(cc(CNC4(C)CCC4)cc3C(F)(F)F)C2=O)c1)C1(O)CCC1 (single isomer, unassigned) [Compound 429] | 4.8 | 42 | – | – | 170 | 200 | 37 | 5.1
9 | Cn1cnnc1[C@H](c1cccc(N2Cc3c(cc(CNC4(C)CCC4)cc3C(F)(F)F)C2=O)c1)C1CC(F)C1 (single isomer, unassigned) [Compound 128] | 13 | 230 | 240 | 4.9x | 3000 | 1300 | – | –
10 | CCCN1CC(c2cc3c(c(C(F)(F)F)c2)CN(c2cccc([C@H](c4nncn4C)C4COC4)c2)C3=O)C1 [Compound 386, (R)-2-(3-((4-methyl-4H-1,2,4-triazol-3-yl)(oxetan-3-yl)methyl)phenyl)-6-(1-propylazetidin-3-yl)-4-(trifluoromethyl)isoindolin-1-one] | 2.4 | 110 | 110 | 2.6x | 320 | 290 | – | –
11 | Cn1cnnc1[C@@H](c1cccc(N2Cc3c(cc([C@H](NC4(C)CCC4)C4CCC4)cc3C(F)(F)F)C2=O)c1)C1COC1 (single isomer, unassigned) [Compound 432] | 3.6 | 0.4 | – | – | 1.5 | 7.1 | 5.5 | 1.3
12 | Cn1cnnc1C1(c2cccc(N3Cc4c(cc(CNC5(C)CCC5)cc4C(F)(F)F)C3=O)c2)C[S+]([O-])C1 (stereo not drawn) [Compound 331, 2-(3-((1r,3r)-3-(4-methyl-4H-1,2,4-triazol-3-yl)-1-oxidothietan-3-yl)phenyl)-6-(((1-methylcyclobutyl)amino)methyl)-4-(trifluoromethyl)isoindolin-1-one] | 8 | 15 | 29 | 3.8x | 120 | 110 | – | –
13 | CO[C@H]1C[C@](c2cccc(N3Cc4c(cc(CNC5(C)CCC5)cc4C(F)F)C3=O)c2)(c2nncn2C)C1 [Compound 117, 4-(difluoromethyl)-2-(3-((1r,3r)-3-methoxy-1-(4-methyl-4H-1,2,4-triazol-3-yl)cyclobutyl)phenyl)-6-(((1-methylcyclobutyl)amino)methyl)isoindolin-1-one] | 16 | 3.2 | 12 | 5.0x | 53 | 60 | – | –
14 | Cn1cnnc1[C@]1(c2cccc(N3Cc4c(cc(CNC5(C)CCC5)cc4C(F)F)C3=O)c2)C[C@@H](F)C1 [Compound 272, 4-(difluoromethyl)-2-(3-((1r,3r)-3-fluoro-1-(4-methyl-4H-1,2,4-triazol-3-yl)cyclobutyl)phenyl)-6-(((1-methylcyclobutyl)amino)methyl)isoindolin-1-one] | 7.6 | 1.4 | 15 | 1.7x | 11 | 25 | – | –
